Patent US20180271987A1, “Controlled Cell Delivery Vehicle and Treatment of Tumours” (The University of Nottingham, priority 2015, published 2018)

B1: heparinase III: enzyme used to deplete cell membrane GAGs (protein, UniProt Q59289 25-659, looked up)
Heparin-sulfate lyase: QSSSITRKDFDHINLEYSGLEKVNKAVAAGNYDDAAKALLAYYREKSKAREPDFSNAEKPADIRQPIDKVTREMADKALVHQFQPHKGYGYFDYGKDINWQMWPVKDNEVRWQLHRVKWWQAMALVYHATGDEKYAREWVYQYSDWARKNPLGLSQDNDKFVWRPLEVSDRVQSLPPTFSLFVNSPAFTPAFLMEFLNSYHQQADYLSTHYAEQGNHRLFEAQRNLFAGVSFPEFKDSPRWRQTGISVLNTEIKKQVYADGMQFELSPIYHVAAIDIFLKAYGSAKRVNLEKEFPQSYVQTVENMIMALISISLPDYNTPMFGDSWITDKNFRMAQFASWARVFPANQAIKYFATDGKQGKAPNFLSKALSNAGFYTFRSGWDKNATVMVLKASPPGEFHAQPDNGTFELFIKGRNFTPDAGVFVYSGDEAIMKLRNWYRQTRIHSTLTLDNQNMVITKARQNKWETGNNLDVLTYTNPSYPNLDHQRSVLFINKKYFLVIDRAIGEATGNLGVHWQLKEDSNPVFDKTKNRVYTTYRDGNNLMIQSLNADRTSLNEEEGKVSYVYNKELKRPAFVFEKPKKNAGTQNFVSIVYPYDGQKAPEISIRENKGNDFEKGKLNLTLTINGKQQLVLVP

Key:
NIH3t3: LSL-eGFP cells = assay: Cre recombination assay (eGFP activation); assay type: cell-based, mouse; details: cells pre-treated with the agent
Text: Previous studies have the avoided issues associated with direct measurement of fluorescent-tagged proteins (such as being unable to distinguish membrane, vesicle or functional cytosolic/nuclear protein) by assaying for the successful nuclear activity of Cre recombinase {Gump, 2010 #2}. This system was used to measure Cre-mediated recombination of a loxP-STOP-loxP (LSL) enhanced green fluorescent protein (eGFP) reporter gene in live NIH3t3 mouse fibroblast cells (NIH3t3: LSL-eGFP cells) as an indicator of cellular uptake (FIG. 18a). This system is rigorous as activation of green fluorescence requires exogenous Cre protein to enter the cell, undergo nuclear-translocation and excise the LSL fragment of the transgene. This must occur in live cells and be non-toxic for the subsequent expression of eGFP. […] To overcome this issue Cre proteins were delivered at limiting dilutions for a short exposure time (1 hour) and the minimum dose required to activate green fluorescence after 48 hours (FIG. 18c) was determined.
To measure Cre Recombinase activity the NIH3t3: LSL-eGFP cell line was created using the pZ/EG plasmid transfection and G-418 selection {Novak, 2000 #6}. […] 2×10^5 cells/well were plated (in 12-well plates), pre-incubated them in DMEM without serum for 1 hour and treated with Cre proteins (0-500 μg/ml) in DMEM without serum. After the Cre incubation cells were trypsinized, replated into complete media and incubated for 2 days. Cells were pre-treated with drugs for the stated time-period in DMEM without serum, were included in Cre-transduction medium and were added after replating. […] After incubations cell were trypsinized, washed, fixed in 4% PFA and % recombined cells was determined by flow cytometry. For mR-Cre-8R and P21-mR-Cre-8R comparisons concentrations of 100 μg/ml and 10 μg/ml were used, respectively and data was expressed as % maximum recombination (i.e. the % relative to the maximum recombination achieved at the stared dose of Cre).

cells = details: literature; cited from earlier work

Row | Molecule | effect of drug or enzyme treatment on functional delivery / recombination of HETD-tagged Cre protein (NIH3t3: LSL-eGFP cells) | increase of nanoparticle uptake (cells) [%]
1 | N=C(N)NC(=O)c1nc(Cl)c(N)nc1N [Amiloride] | dose-dependent reduction of functional transduction into cells | 
2 | Arg-Gly-Asp [RGD] |  | 50
3 | methyl-β-cyclodextrin | dose-dependent inhibition of functional delivery | 
4 | C[C@@H]1[C@H](O)[C@@H](C)/C=C/C=C/CC/C=C/C=C/C=C/C=C/C(O[C@H]2O[C@H](C)[C@@H](O)[C@H](N)[C@@H]2O)CC2O[C@](O)(CC(O)C(O)CCC(O)CC(O)CC(O)CC(=O)O[C@H]1C)CC(O)C2C(=O)O (stereo partly drawn) [nystatin] | dose-dependent inhibition of functional delivery | 
5 | C=C1[C@@H](C)[C@H]2[C@H](Cc3ccccc3)NC(=O)[C@]23[C@H](OC(C)=O)/C=C/[C@@](C)(O)C(=O)[C@@H](C)C/C=C/[C@H]3[C@@H]1O [Cytochalasin D] | dose-dependent reduction of functional transduction into cells | 
6 | B1 | reduced recombination to basal-levels | 
